Measurements as given in PubChem BioAssay (NCI).
Values joined by “and” are separate entries in the source; they are usually repeats but may differ in a detail not shown here. Equal entries are not always repeated.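 How tested: cells in 96-well plates exposed to compound for 48 hours at five concentrations. Here, GI50 denotes the concentration required for 50% inhibition of growth. TGI marks complete inhibition of growth.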

How the values were obtained:
Assay in all cases: NCI-60 cell line screen, 48 h
786-0 renal = test system: 786-0 renal
MALME-3M melanoma = test system: MALME-3M melanoma
OVCAR-4 ovarian = test system: OVCAR-4 ovarian
OVCAR-5 ovarian = test system: OVCAR-5 ovarian
OVCAR-8 ovarian = test system: OVCAR-8 ovarian
SK-MEL-28 melanoma = test system: SK-MEL-28 melanoma
SK-MEL-5 melanoma = test system: SK-MEL-5 melanoma
SK-OV-3 ovarian = test system: SK-OV-3 ovarian
SNB-19 CNS = test system: SNB-19 CNS
UO-31 renal = test system: UO-31 renal

| Compound | GI50 (786-0 renal) | TGI (786-0 renal) | GI50 (MALME-3M melanoma) | TGI (MALME-3M melanoma) | GI50 (OVCAR-4 ovarian) [µM] | TGI (OVCAR-4 ovarian) | GI50 (OVCAR-5 ovarian) | TGI (OVCAR-5 ovarian) | GI50 (OVCAR-8 ovarian) | TGI (OVCAR-8 ovarian) | GI50 (SK-MEL-28 melanoma) | TGI (SK-MEL-28 melanoma) | GI50 (SK-MEL-5 melanoma) [µM] | TGI (SK-MEL-5 melanoma) | GI50 (SK-OV-3 ovarian) | TGI (SK-OV-3 ovarian) | GI50 (SNB-19 CNS) | TGI (SNB-19 CNS) | GI50 (UO-31 renal) [µM] | TGI (UO-31 renal) |
| --- | --- | --- | --- | --- | --- | --- | --- | --- | --- | --- | --- | --- | --- | --- | --- | --- | --- | --- | --- | --- |
| Cc1ccc(CNc2c3ccccc3nc3ccccc23)cc1 | 1.95 µM | 4.26 µM | 1.66 µM | 3.18 µM | 1.54 | 5.36 µM | 1.99 µM | 8.08 µM | 2.52 µM | 10.5 µM | 1.84 µM | 4.16 µM | 1.66 | 3.06 µM | 2.59 µM | 10.8 µM | 3.33 µM | 14.2 µM | 1.12 | 3.17 µM |
| COc1cc2c3c(n(C)c(=O)c2cc1OC)-c1cc2c(cc1/C3=C\CCCCCN)OCO2 | 0.979 µM | > 50.9 µM | 8.38 µM | 37.8 µM | 17.4 | > 94.1 µM | 8.66 µM | > 52.9 µM |  | 3.33 µM | 33.7 µM | > 100 µM | 3.12 | 38.2 µM | 8.62 µM | 44.7 µM | 2.49 µM | 76.5 µM | 2.08 | > 100 µM |
| C[C@@H]1C[C@@H](O)[C@]2(O)O[C@@H]3C[C@@]4(C=O)[C@@H](CC[C@@H]5[C@@H]4CC[C@]4(C)[C@@H](C6=CC(=O)OC6)CC[C@]54O)C[C@H]3O[C@@H]2O1 | 0.0212 µM and 0.005 µM | 0.0124 µM and 0.0611 µM and 0.0222 µM | 0.0256 µM and 0.0163 µM | 0.032 µM and 0.0802 µM and 0.0994 µM | 0.0056 | 0.0531 µM and 0.0128 µM | 0.119 µM and 0.0652 µM | 0.102 µM and 0.299 µM and 0.194 µM | 0.0393 µM and 0.0143 µM | 0.057 µM and 0.13 µM and 0.116 µM | 0.167 µM and 0.0409 µM | 0.143 µM and 0.683 µM and 0.354 µM | 0.0247 | 0.0303 µM and 0.055 µM and 0.0584 µM | 0.0636 µM and 0.0173 µM |  | 0.101 µM and 0.0197 µM | 0.145 µM and 0.217 µM and 0.184 µM | 0.0143 | 0.0559 µM and 0.0454 µM |
| O=C(CCCCCCSc1nc(-c2ccccc2)cc(-c2ccc(Cl)cc2)n1)NO | 2.22 µM | 6.92 µM | 1.25 µM | 9.05 µM | 2.52 | 13.5 µM | 1.56 µM | 5.42 µM | 1.93 µM | 10.2 µM | 2.94 µM | 12.1 µM | 1.69 | 3.93 µM | 2.36 µM | 6.04 µM | 2.63 µM | 11.2 µM | 0.905 | 2.65 µM |
| COc1ccc(C(=O)/C(Br)=C/C(=O)O)cc1 | 10.8 µM and 30.7 µM | 56.1 µM and 99.1 µM | 18.8 µM | 47.3 µM and 45.2 µM |  | 125 µM and 120 µM |  | 131 µM and 129 µM |  | 326 µM |  | 89.1 µM and 89.4 µM | 12.7 | 39.6 µM and 47.7 µM |  | 358 µM and 299 µM | 56.3 µM | 188 µM and 375 µM | 20.3 | 77.7 µM and 103 µM |
| CCc1cccc(C(C)C)c1NC(=O)C(=O)C(Cc1nc2ccccc2[nH]c1=O)C(=O)OC (stereo not given) |  | > 100 µM |  | > 100 µM |  | > 100 µM |  | > 100 µM |  | > 100 µM |  | > 100 µM |  | > 100 µM |  | > 100 µM |  | > 100 µM |  | > 100 µM |
| O=C(Nc1ccc(N2CCNCC2)cc1)c1[nH]ncc1Nc1ncnc2sc3c(c12)CCC3 | 0.254 µM | 1.52 µM | 0.121 µM | 1.77 µM | 0.321 | 2.26 µM | 0.33 µM | 1.92 µM | 0.36 µM | 1.84 µM | 1 µM | 2.29 µM | 0.381 | 1.79 µM | 0.257 µM | 1.56 µM | 0.274 µM | 1.69 µM | 0.431 | 1.84 µM |
| C=CCn1c2c(c3ccccc3c1=O)C(=O)c1ccccc1-2 |  | > 100 µM |  | > 100 µM |  | > 100 µM |  | > 100 µM |  | > 100 µM |  | > 100 µM |  | > 100 µM |  | > 100 µM |  | > 100 µM |  | > 100 µM |
| CC1=C(C)C(=O)c2c(cc3ccc4ccccc4n23)C1=O |  | > 100 µM |  | > 100 µM |  | > 100 µM |  | > 100 µM |  | > 100 µM |  | > 100 µM |  | > 100 µM |  | > 100 µM |  | > 100 µM |  | > 100 µM |
| COc1cc(/C(C#N)=C/c2ccc3c(c2OC)OCO3)cc2c1OCO2 | 0.2 µM | 21.5 µM | 0.264 µM | 41.1 µM | 1.45 | > 100 µM | 0.823 µM | > 80.2 µM | 0.243 µM | > 60.9 µM | 1.24 µM | > 100 µM | 0.0546 | > 46.4 µM | 0.113 µM | 14.2 µM | 0.236 µM | 20.4 µM | 2.09 | > 100 µM |
| Cc1ncc(CN=Cc2ccc(Cl)cc2)c(N)n1 |  | > 100 µM |  | > 100 µM |  | > 100 µM |  | > 100 µM |  | > 100 µM |  | > 100 µM |  | > 100 µM |  | > 100 µM |  | > 100 µM |  | > 100 µM |
| Nn1c(-c2ccccc2)nc2ccc(Br)cc2c1=O |  | > 100 µM |  | > 100 µM |  | 86.7 µM |  | > 100 µM |  | > 100 µM |  | > 100 µM |  | > 100 µM |  | > 100 µM |  | > 100 µM |  | > 100 µM |
| O=c1oc2cc(OS(=O)(=O)c3ccc(F)cc3)ccc2c2c1CCCCC2 | > 100 µM | > 100 µM | > 100 µM | > 100 µM | 5.76 | > 100 µM | > 100 µM | > 100 µM | > 100 µM | > 100 µM | > 100 µM | > 100 µM | 5.69 | > 100 µM | > 100 µM | > 100 µM | > 100 µM | > 100 µM | > 100 | > 100 µM |
| CN(C)c1cccc2c(S(=O)(=O)N[C@H]3CC[C@H]4[C@@H]5CCc6cc(O)ccc6[C@H]5CC[C@]34C)cccc12 | 3.18 µM | 9.78 µM | 1.9 µM | 5.61 µM | 2.8 | 13.8 µM | 3.09 µM | 13.2 µM | 3.3 µM | 15.9 µM | 2.2 µM | 5.89 µM | 1.53 | 2.9 µM | 3.83 µM | 74.3 µM | 3.43 µM | > 100 µM | 2.02 | 7.51 µM |
| CN1CCN(CN2C(=O)C3C4C=CC(C3C2=O)C2C3C(=O)N(CN5CCN(C)CC5)C(=O)C3C42)CC1 (stereo not given) |  | 34.3 µM and 40.3 µM and 36 µM |  | 34.2 µM |  | 38.4 µM and 45.1 µM and 53.5 µM |  | > 100 µM |  | 35.7 µM and > 65.3 µM and 59.9 µM |  | 49.3 µM and > 61.8 µM and 35.3 µM |  | 31 µM and > 58.5 µM and 68.7 µM | 37.4 µM and 34.1 µM and 80.1 µM | > 100 µM | 31.7 µM and 53.2 µM and 76.9 µM | > 100 µM |  | 76.8 µM and > 67.8 µM and > 100 µM |
